Assay results as given in US10604489B2, “Compounds for the treatment of pain” (priority 2018, dated 2020).
Structures can show the parent of a compound that is named as a salt.

What was measured:
μ-receptor = μ-receptor (Homo sapiens (Human), UniProt P35372); assay: Receptor binding, competitive displacement of [3H]DAMGO; conditions: 0.25 nM [3H]DAMGO, CHO cell membrane protein, 60 min at 25° C.
Experimental: The Ki (binding affinity) for μ-receptor was determined with a previously described method using a competitive displacement assay (Neumeyer et al., J. Med. Chem., v. 46, p. 5162-5170, 2003). Membrane protein from CHO (Chinese Hamster Ovarian) cells that stably expressed one type of the cloned human opioid receptor were incubated with 12 different concentrations of the compound in the presence of 0.25 nM [3H]DAMGO, 0.2 nM [3H]naltrindole or 1 nM [3H]U69,593 in a final volume of 1 mL of 50 mM Tris-HCl, pH 7.5 at 25° C. Incubation times of 60 min were used for [3H]DAMGO and [3H]U69,593. Because of a slower association of [3H]naltrindole with the receptor, a 3 h incubation was used with this radioligand. Samples incubated with [3H]naltrindole also contained 10 mM MgCl2 and 0.5 mM phenylmethylsulfonyl fluoride. Nonspecific binding was measured by inclusion of 10 μM naloxone. The binding was terminated by filtering the samples through Schleicher & Schuell No. 32 glass fiber filters using a Brandel 48-well cell harvester. The filters were subsequently washed three times with 3 mL of cold 50 mM Tris-HCl, pH 7.5, and were counted in 2 mL Ecoscint A scintillation fluid. For [3H]naltrindole and [3H]U69,593 binding, the filters were soaked in 0.1% polyethylenimine for at least 60 min before use. IC50 values will be calculated by least squares fit to a logarithm-probit analysis. Ki values of unlabelled compounds were calculated from the equation Ki=(IC50)/1+S where S=(concentration of radioligand)/(Kd of radioligand) (Cheng and Prusoff, Biochemical Pharmacology, v. 22, p. 3099-3108, 1973).

human μ opioid receptor = human μ opioid receptor (Homo sapiens (Human), UniProt P35372); assay: Functional activity ([35S]GTPγS binding); format: biochemical; conditions: [35S]GTPγS 0.080 nM, CHO cell membranes, 60 min at 30° C., filtration
Experimental: The [^35S]GTPγS assay measures the functional properties of a compound by quantifying the level of G-protein activation following agonist binding in studies using stably transfected cells, and is considered to be a measure of the efficacy of a compound. Membranes from CHO (Chinese Hamster Ovary) cells that stably expressed one type of the cloned human opioid receptor human were used in the experiments. In a final volume of 0.5 mL, 12 different concentrations of each test compound were incubated with 7.5 μg of CHO cell membranes that stably expressed the human p opioid receptor. The assay buffer consisted of 50 mM Tris-HCl, pH 7.4, 3 mM MgCl2, 0.2 mM EGTA, 3 μM GDP, and 100 mM NaCl. The final concentration of [35S]GTPγS was 0.080 nM. Nonspecific binding was measured by inclusion of 10 μM GTPγS. Binding was initiated by the addition of the membranes. After an incubation of 60 min at 30° C., the samples were filtered through Schleicher & Schuell No. 32 glass fiber filters. The filters were washed three times with cold 50 mM Tris-HCl, pH 7.5, and were counted in 2 mL of Ecoscint scintillation fluid.

SMILES | Ki (μ-receptor) [nM] | EC50 (human μ opioid receptor) [nM]
COC1(c2cccc(C(N)=O)c2O)C2CCCC1CN(C)C2 [Compound 49, 2-hydroxy-3-((1R,5S,9r)-9-methoxy-3-methyl-3-azabicyclo[3.3.1]nonan-9-yl)benzamide hydrochloride] | < 1 | < 10
COC1(c2cccc(C(N)=O)c2)C2CCCC1CN(C1COC1)C2 [Compound 50, 3-((1R,5S,9r)-9-methoxy-3-(oxetan-3-yl)-3-azabicyclo[3.3.1]nonan-9-yl)benzamide (S)-2-hydroxysuccinate] | 1 to 5 | 10 to 75
COC1(c2cccc(C(N)=O)c2)C2CCCC1CN(CC1COC1)C2 [Compound 51, 3-((1R,5S,9r)-9-methoxy-3-(oxetan-3-ylmethyl)-3-azabicyclo[3.3.1]nonan-9-yl)benzamide (S)-2-hydroxysuccinate] | < 1 | 10 to 75
COC1(c2ccnc(C(N)=O)c2F)C2CCCC1CN(C)C2 [Compound 53, 3-fluoro-4-((1R,5S,9r)-9-methoxy-3-methyl-3-azabicyclo[3.3.1]nonan-9-yl)picolinamide hydrochloride] | 1 to 5 | > 75
Cl.[2H]C([2H])([2H])N1CC2CCCC(C1)C2(OC)c1cccc(C(N)=O)c1 [Compound 54, 3-((1R,5S,9r)-9-methoxy-3-(trideuteriomethyl)-3-azabicyclo[3.3.1]nonan-9-yl)benzamide hydrochloride] | < 1 | < 10
COC1(c2ccnc(C(N)=O)c2)C2CCCC1CN(C1CCCC1)C2 [Compound 55, 4-((1R,5S,9r)-3-cyclopentyl-9-methoxy-3-azabicyclo[3.3.1]nonan-9-yl)picolinamide hydrochloride] | < 1 | 10 to 75
COC1(c2ccnc(C(N)=O)c2F)C2CCCC1CN(C1CC1)C2 [Compound 57, 4-((1R,5S,9r)-3-cyclopropyl-9-methoxy-3-azabicyclo[3.3.1]nonan-9-yl)-3-fluoropicolinamide hydrochloride] | > 5 | > 75
COC1(c2cccc(C(N)=O)c2)C2CCCC1CN(CC1(O)Cc3ccccc3C1)C2 [Compound 58, 3-((1R,5S,9r)-3-((2-hydroxy-2,3-dihydro-1H-inden-2-yl)methyl)-9-methoxy-3-azabicyclo[3.3.1]nonan-9-yl)benzamide hydrochloride] | < 1 | < 10
COC1(c2cccc(C(N)=O)c2)C2CCCC1CN(Cc1nc3ccccc3[nH]1)C2 [Compound 64, 3-((1R,5S,9r)-3-((1H-benzo[d]imidazol-2-yl)methyl)-9-methoxy-3-azabicyclo[3.3.1]nonan-9-yl)benzamide hydrochloride] | < 1 | < 10
CCN1CC2CCCC(C1)C2(OC)c1ccnc(C(N)=O)c1 [Compound 66, 4-((1R,5S,9r)-3-ethyl-9-methoxy-3-azabicyclo[3.3.1]nonan-9-yl)picolinamide hydrochloride] | 1 to 5 | 10 to 75
COC1(c2ccnc(C(N)=O)c2)C2CCCC1CN(Cc1ccccn1)C2 [Compound 67, 4-((1R,5S,9r)-9-methoxy-3-(pyridin-2-ylmethyl)-3-azabicyclo[3.3.1]nonan-9-yl)picolinamide dihydrochloride] | 1 to 5 | 10 to 75
COC1(c2ccnc(C(N)=O)c2)C2CCCC1CN(Cc1cccnc1)C2 [Compound 68, 4-((1R,5S,9r)-9-methoxy-3-(pyridin-3-ylmethyl)-3-azabicyclo[3.3.1]nonan-9-yl)picolinamide dihydrochloride] | 1 to 5 | 10 to 75
COC1(c2ccnc(C(N)=O)c2)C2CCCC1CN(Cc1ccncc1)C2 [Compound 69, 4-((1R,5S,9r)-9-methoxy-3-(pyridin-4-ylmethyl)-3-azabicyclo[3.3.1]nonan-9-yl)picolinamide hydrochloride] | > 5 | > 75
COC1(c2ccc(C(N)=O)s2)C2CCCC1CN(C1CCOCC1)C2 [Compound 71, 5-((1R,5S,9r)-9-methoxy-3-(tetrahydro-2H-pyran-4-yl)-3-azabicyclo[3.3.1]nonan-9-yl)thiophene-2-carboxamide hydrochloride] | > 5 | > 75
COC1(c2ccnc(C(N)=O)c2)C2CCCC1CN(CC1(O)CC1)C2 [Compound 72, 4-((1R,5S,9r)-3-((1-hydroxycyclopropyl)methyl)-9-methoxy-3-azabicyclo[3.3.1]nonan-9-yl)picolinamide hydrochloride] | 1 to 5 | > 75
COC1(c2ccnc(C(N)=O)c2)C2CCCC1CN(CC1(O)Cc3ccccc3C1)C2 [Compound 73, 4-((1R,5S,9r)-3-((2-hydroxy-2,3-dihydro-1H-inden-2-yl)methyl)-9-methoxy-3-azabicyclo[3.3.1]nonan-9-yl)picolinamide hydrochloride] | < 1 | < 10
COC1(c2ccnc(C(N)=O)c2)C2CCCC1CN(C1CCOC1)C2 [Compound 74, 4-((1R,5S,9r)-9-methoxy-3-(tetrahydrofuran-3-yl)-3-azabicyclo[3.3.1]nonan-9-yl)picolinamide hydrochloride] | 1 to 5 | 10 to 75
COC1(c2cccc(C(N)=O)c2)C2CCCC1CN(Cc1cnn[nH]1)C2 [Compound 75, 3-((1R,5S,9r)-3-((1H-1,2,3-triazol-5-yl)methyl)-9-methoxy-3-azabicyclo[3.3.1]nonan-9-yl)benzamide hydrochloride] | < 1 | < 10
COC1(c2ccnc(C(N)=O)c2)C2CCCC1CN(C(C)C)C2 [Compound 76, 4-((1R,5S,9r)-3-isopropyl-9-methoxy-3-azabicyclo[3.3.1]nonan-9-yl)picolinamide hydrochloride] | 1 to 5 | 10 to 75
COC1(c2ccnc(C(N)=O)c2)C2CCCC1CN(C1CC3(CCC3)C1)C2 [Compound 77, 4-((1R,5S,9r)-9-methoxy-3-(spiro[3.3]heptan-2-yl)-3-azabicyclo[3.3.1]nonan-9-yl)picolinamide hydrochloride] | < 1 | < 10
COC1(c2ccnc(C(N)=O)c2)C2CCCC1CN([C@@H]1CCOC1)C2 (stereo partly drawn) [Compound 78, 4-((1R,5S,9s)-9-methoxy-3-((S)-tetrahydrofuran-3-yl)-3-azabicyclo[3.3.1]nonan-9-yl)picolinamide hydrochloride] | 1 to 5 | 10 to 75
COC1(c2ccnc(C(N)=O)c2)C2CCCC1CN(C1CC3(COC3)C1)C2 [Compound 81, 4-((1R,5S,9r)-9-methoxy-3-(2-oxaspiro[3.3]heptan-6-yl)-3-azabicyclo[3.3.1]nonan-9-yl)picolinamide (S)-2-hydroxysuccinate] | < 1 | 10 to 75
COC1(c2ccnc(C(N)=O)c2)C2CCCC1CN(C1CC(F)(F)C1)C2 [Compound 82, 4-((1R,5S,9r)-3-(3,3-difluorocyclobutyl)-9-methoxy-3-azabicyclo[3.3.1]nonan-9-yl)picolinamide hydrochloride] | 1 to 5 | 10 to 75
COCCN1CC2CCCC(C1)C2(OC)c1ccnc(C(N)=O)c1 [Compound 83, 4-((1R,5S,9r)-9-methoxy-3-(2-methoxyethyl)-3-azabicyclo[3.3.1]nonan-9-yl)picolinamide hydrochloride] | 1 to 5 | 10 to 75
COC1(c2ccnc(C(N)=O)c2)C2CCCC1CN(CCN1CCNC1=O)C2 [Compound 85, 4-((1R,5S,9r)-9-methoxy-3-(2-(2-oxoimidazolidin-1-yl)ethyl)-3-azabicyclo[3.3.1]nonan-9-yl)picolinamide hydrochloride] | 1 to 5 | 10 to 75
COC1(c2ccnc(C(N)=O)c2)C2CCCC1CN(CCC1CC1)C2 [Compound 86, 4-((1R,5S,9r)-3-(2-cyclopropylethyl)-9-methoxy-3-azabicyclo[3.3.1]nonan-9-yl)picolinamide hydrochloride] | 1 to 5 | 10 to 75
COC1(c2ccnc(C(N)=O)c2)C2CCCC1CN(C1CC(c3ccccc3)C1)C2 [Compound 87, 4-((1R,5S,9R)-9-methoxy-3-((1r,3R)-3-phenylcyclobutyl)-3-azabicyclo[3.3.1]nonan-9-yl)picolinamide hydrochloride] | < 1 | < 10
